Calls of active or inactive are those of the source.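 How the source made its calls: active means maximum inhibition above 50% at any tested concentration, with a dose response curve fitted; inactive means no inhibition at any concentration or no dose response curve.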
What follows are compounds tested against TRPC4 (transient receptor potential cation channel C4), mouse (assay: TRPC4 channel inhibitors, SAR follow-up, cell-based, concentration-response (AID 652179)). Conditions: HEK293 TRPC4/mu-opioid cells, Fluo-4 calcium fluorescence ratio.

**Q.** `c1ccc2nc(N3CCCCC3)ccc2c1` was tested. Which IC50 did it give?
**A.** The IC50 was 4.61 µM.

**Q.** How did the IC50 turn out when `Cc1cc(N2CCCC(F)C2)nc2ccccc12` (stereo unspecified) was run?
**A.** Its IC50 is 12.6 µM.

**Q.** `Cc1cc(N2CCC(F)(F)CC2)nc2ccccc12` was tested. Which IC50 did it give?
**A.** Its IC50 is 10.6 µM.

**Q.** For `Cc1cc(N2CCC(F)CC2)nc2ccccc12`, which IC50 is on record?
**A.** The IC50 was 10.2 µM.

**Q.** How did the IC50 turn out when `Cc1cc(N2CCCCC2)nc2ccccc12` was run?
**A.** The IC50 was 1.53 µM.

**Q.** How did the IC50 turn out when `C[C@H]1CCCN1c1ccc2ccccc2n1` was run?
**A.** Its IC50 is 14.9 µM.

Same assay, conditions: HEK293 TRPC4/mu-opioid cells, Fluo-4 calcium fluorescence ratio; at 20 µM (top of the series)

**Q.** `Cc1cc(N2CCC(O)CC2)nc2ccccc12` was tested. Which “fluorescence ratio, lower = inhibition” value did it give?
**A.** Its value is “inactive”.

**Q.** For `OC1CCN(c2ccc3ccccc3n2)C1` (stereo unspecified), which “fluorescence ratio, lower = inhibition” value is on record?
**A.** The value was “inactive”.

**Q.** How did the “fluorescence ratio, lower = inhibition” value turn out when `FC1CCN(c2ccc3ccccc3n2)CC1` was run?
**A.** The value was “inactive”.

**Q.** `FC1CCCN(c2ccc3ccccc3n2)C1` (stereo unspecified) was tested. Which “fluorescence ratio, lower = inhibition” value did it give?
**A.** Its value is “inactive”.

**Q.** With `Cc1cc(N2CCC(=O)CC2)nc2ccccc12` as the compound, how does the “fluorescence ratio, lower = inhibition” value read?
**A.** Its value is “inactive”.

**Q.** Which “fluorescence ratio, lower = inhibition” value does the source give for `c1ccc2nc(N3CCCC3)ccc2c1` here?
**A.** Its value is “inactive”.

**Q.** `Cc1cc(-n2cccc2)nc2ccccc12` was tested. Which “fluorescence ratio, lower = inhibition” value did it give?
**A.** Its value is “inactive”.

**Q.** For `Cc1cc(-n2cccn2)nc2ccccc12`, which “fluorescence ratio, lower = inhibition” value is on record?
**A.** The value was “inactive”.

**Q.** With `FC1(F)CCN(c2ccc3ccccc3n2)CC1` as the compound, how does the “fluorescence ratio, lower = inhibition” value read?
**A.** Its value is “inactive”.

**Q.** Which “fluorescence ratio, lower = inhibition” value does the source give for `Cc1cc(-n2ccnc2)nc2ccccc12` here?
**A.** The value was “inactive”.

**Q.** `O=C1CCN(c2ccc3ccccc3n2)CC1` was tested. Which “fluorescence ratio, lower = inhibition” value did it give?
**A.** Its value is “inactive”.

**Q.** With `Cc1cc(N2CCC(O)C2)nc2ccccc12` (stereo unspecified) as the compound, how does the “fluorescence ratio, lower = inhibition” value read?
**A.** Its value is “inactive”.

**Q.** `OC1CCCN(c2ccc3ccccc3n2)C1` (stereo unspecified) was tested. Which “fluorescence ratio, lower = inhibition” value did it give?
**A.** The value was “inactive”.

**Q.** Which “fluorescence ratio, lower = inhibition” value does the source give for `OC1CCN(c2ccc3ccccc3n2)CC1` here?
**A.** The value was “inactive”.

**Q.** With `Cc1cc(N(C)C)nc2ccccc12` as the compound, how does the “fluorescence ratio, lower = inhibition” value read?
**A.** Its value is “inactive”.

— PubChem BioAssay AID652179 (Johns Hopkins Ion Channel Center, 2013)
